Source: PubChem BioAssay AID1845215 (Molecular Pharmacology Branch, DTP, NCI, 2023)
Several values for one entry are separate records, joined by “and”; a condition that tells them apart may be missing. Equal entries are not always repeated.

System: SW 1271 complex tumor spheroid viability
Assay: Anticancer human tumor SW 1271 cell line growth inhibition;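 note: spheroids exposed to agents for seven days before readout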;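 for viability, T/C: percent of DMSO vehicle control luminescence so 100% = vehicle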
Details: for viability, T/C: stronger effect = lower value
Text: Multicellular complex tumor spheroid response to DNA repair inhibitors in combination with DNA-damaging drugs
This study explores the anticancer activities of DNA-damaging drugs and inhibitors of DNA damage repair, both as single agents and in combinations. Complex tumor spheroids comprised of malignant cells, endothelial cells and mesenchymal stem cells served as an in vitro model for human solid tumors. This model system incorporates physiologically relevant features and patient-derived or established malignant cell lines with clinically relevant genetic alterations from many tumor types. Twenty-six patient-derived or established malignant cell lines were evaluated representing sarcoma, melanoma, small cell lung cancer (SCLC), non-small cell lung cancer (NSCLC), as well as bladder, ovarian and pancreatic cancers. The concentration ranges selected for each drug and investigational agent were based upon clinically achievable concentrations if the clinical Cmax of the agent was known.
Compounds. The drugs and compounds olaparib (NSC753686), talazoparib (NSC767125), berzosertib (NSC777718), elimusertib (NSC800525), nedisertib (NSC802822), VX-984 (NSC792969), AZD-1390 (NSC803789), temozolomide (NSC362856), topotecan (NSC609699), trabectedin (NSC813783), staurosporine (NSC755774), and gemcitabine (NSC613327) were obtained from the National Cancer Institute (NCI) Developmental Therapeutics Program Chemical Repository. The FDA-approved anticancer drug set is available from the Developmental Therapeutics Program at https://dtp.cancer.gov/organization/dscb/obtaining/available_plates.htm. […] The stock solutions were prepared in dimethyl sulfoxide (DMSO, Sigma-Aldrich, St. Louis, MO, cat. D2650) at 400-fold the tested concentration and stored at -70 degrees C. Prior to their use, the stock solutions were diluted in fresh medium and the final DMSO concentration in the assay was 0.25% (v/v). All drugs and investigational agents were tested over a range starting from a high concentration at or near the clinical Cmax and decreasing in half-log increments. If the clinical Cmax for an agent had not been determined, the highest concentration tested was 10 microM.
Cell Lines. The patient-derived cancer cell (PDC) lines: 156681-154-R-J1-PDC, 283228-195-R-J1-PDC, 287954-098-R-J1-PDC, 292921-168-R-J2-PDC, 349418-098-R-PDC, 425362-245-T-J1-PDC, 556581-035-R-J1-PDC, and BL0293-F563-PDC were received from the NCI Patient-Derived Models Repository (PDMR, https://pdmr.cancer.gov). The established cell lines HS-SY-2 (RRID:CVCL_8719), MPNST, and SYO-1 (RRID:CVCL_7146) were obtained from the Sloan Kettering Institute. The alveolar soft parts sarcoma cell line ASPS-1 (RRID:CVCL_S738) was established at the NCI and grown from internal seed stocks. The following established cell lines were purchased from the American Type Culture Collection (ATCC, Manassas, VA): G-401 (ATCC, cat. CRL-1441, RRID:CVCL_0270), SW982 (ATCC, cat. HTB-93, RRID:CVCL_1734), VA-ES-BJ (ATCC, cat. CRL-2138, RRID:CVCL_1785), NCI-H719 (ATCC, cat. CRL-5837, RRID:CVCL_1582), NCI-H196 (ATCC, cat. CRL-5823, RRID:CVCL_1509), NCI-H841 (ATCC, cat. CRL-5845, RRID:CVCL_1595), NCI-H1618 (ATCC, cat. CRL-5879, RRID:CVCL_1480), NCI-H1876 (ATCC, cat. CRL-5902, RRID:CVCL_1503), DMS 114 (ATCC, cat. CRL-2066; RRID:CVCL_1174), NCI-H211 (ATCC, cat. CRL-5824; RRID:CVCL_1529), and SW 1271 (ATCC, cat. CRL-2177, RRID:CVCL_1716). The small cell lung cancer cell line COR-L88 was purchased from Sigma-Aldrich (cat. 92031917-1VL, RRID:CVCL_1141). The non-small cell lung cancer cell lines NCI-H226 (RRID:CVCL_1544) and NCI-H322M (RRID:CVCL_1557) were established at the NCI and grown from internal seed stocks. Pooled donor human umbilical vein endothelial cells (HUVEC, Lonza, cat. CC-2519) and human mesenchymal stem cells (hMSC, Lonza, cat. PT-2501) were purchased from Lonza (Walkersville, MD).
Cell Culture. All cells were maintained in an incubator at 37 degrees C and 5% CO2 with 95% humidity. […]

CC(C)n1c(=O)n(C)c2cnc3cc(F)c(-c4ccc(OCCCN5CCCCC5)nc4)cc3c21 + CC[C@@]1(O)C(=O)OCc2c1cc1n(c2=O)Cc2cc3c(CN(C)C)c(O)ccc3nc2-1 was tested, and the IC50 (curve of first compound, second compound 0.003 µM) was under 0.0316 µM, the IC50 (curve of first compound, second compound 0.00949 µM) was under 0.0316 µM and the IC50 (curve of first compound, second compound 0.03 µM) was under 0.0316 µM. It also gave an IC50 (curve of first compound, second compound 0.0949 µM) of under 0.0316 µM, an IC50 (curve of first compound, second compound 0.3 µM) of under 0.0316 µM and a viability, T/C (second compound 0.003 µM, first compound 0.0316 µM) of 28.2%. The viability, T/C (second compound 0.003 µM, first compound 0.1 µM) was 26.8%, the viability, T/C (second compound 0.003 µM, first compound 0.316 µM) was 25% and the viability, T/C (second compound 0.003 µM, first compound 1 µM) was 27.7%. It also gave a viability, T/C (second compound 0.003 µM, first compound 3.16 µM) of 19.3%, a viability, T/C (second compound 0.003 µM, first compound 10 µM) of 7.91% and a viability, T/C (second compound 0.00949 µM, first compound 0.0316 µM) of 15.9%. For the same molecule, the viability, T/C (second compound 0.00949 µM, first compound 0.1 µM) was 17.9%, the viability, T/C (second compound 0.00949 µM, first compound 0.316 µM) was 14.5% and the viability, T/C (second compound 0.00949 µM, first compound 1 µM) was 12.2%. The viability, T/C (second compound 0.00949 µM, first compound 3.16 µM) was 11.3%, the viability, T/C (second compound 0.00949 µM, first compound 10 µM) was 5.27% and the viability, T/C (second compound 0.03 µM, first compound 0.0316 µM) was 20.4%. For the same molecule, the viability, T/C (second compound 0.03 µM, first compound 0.1 µM) was 17.7%, the viability, T/C (second compound 0.03 µM, first compound 0.316 µM) was 16% and the viability, T/C (second compound 0.03 µM, first compound 1 µM) was 15.8%. It also gave a viability, T/C (second compound 0.03 µM, first compound 3.16 µM) of 8.12%, a viability, T/C (second compound 0.03 µM, first compound 10 µM) of 3.67% and a viability, T/C (second compound 0.0949 µM, first compound 0.0316 µM) of 23.9%. The viability, T/C (second compound 0.0949 µM, first compound 0.1 µM) was 24.6%, the viability, T/C (second compound 0.0949 µM, first compound 0.316 µM) was 23.2% and the viability, T/C (second compound 0.0949 µM, first compound 1 µM) was 19.8%. The viability, T/C (second compound 0.0949 µM, first compound 3.16 µM) was 7.87%, the viability, T/C (second compound 0.0949 µM, first compound 10 µM) was 3.44% and the viability, T/C (second compound 0.3 µM, first compound 0.0316 µM) was 14.6%. It also gave a viability, T/C (second compound 0.3 µM, first compound 0.1 µM) of 13.2%, a viability, T/C (second compound 0.3 µM, first compound 0.316 µM) of 16.4% and a viability, T/C (second compound 0.3 µM, first compound 1 µM) of 16.1%. It also gave a viability, T/C (second compound 0.3 µM, first compound 3.16 µM) of 7.25% and a viability, T/C (second compound 0.3 µM, first compound 10 µM) of 4.47%.

For [2H]c1nc(C)nc([2H])c1-c1cc(NC[C@@H](C)c2cccc3c(C(=O)NC)ccnc23)ncn1, the viability, T/C (compound 0.0316 µM) was 96.9% and 105% and 108%, the viability, T/C (compound 0.1 µM) was 98.7% and 104% and 106% and the viability, T/C (compound 0.316 µM) was 101% and 95.6% and 96.8%. The viability, T/C (compound 1 µM) was 104% (2×) and 99.2%, the viability, T/C (compound 3.16 µM) was 98% and 96.2% and 104% and the viability, T/C (compound 10 µM) was 90.8% and 102% and 96.7%. For the same molecule, the IC50 (curve of compound) was over 10 µM.

CC1COCCN1c1cc(-c2ccnn2C)c2ccnc(-c3ccn[nH]3)c2n1 (configuration not stated) + Cn1nnc2c(C(N)=O)ncn2c1=O showed an IC50 (curve of first compound, second compound 1 µM) of 0.0673 µM, an IC50 (curve of first compound, second compound 3.16 µM) of 0.0701 µM and an IC50 (curve of first compound, second compound 10 µM) of 0.0678 µM. The IC50 (curve of first compound, second compound 31.6 µM) was 0.0382 µM, the IC50 (curve of first compound, second compound 100 µM) was under 0.0316 µM and the viability, T/C (second compound 1 µM, first compound 0.0316 µM) was 71.4%. It also gave a viability, T/C (second compound 1 µM, first compound 0.1 µM) of 38.7%, a viability, T/C (second compound 1 µM, first compound 0.316 µM) of 15.1% and a viability, T/C (second compound 1 µM, first compound 1 µM) of 6.03%. For the same molecule, the viability, T/C (second compound 1 µM, first compound 3.16 µM) was 3.67%, the viability, T/C (second compound 1 µM, first compound 10 µM) was 3.45% and the viability, T/C (second compound 3.16 µM, first compound 0.0316 µM) was 76.6%. For the same molecule, the viability, T/C (second compound 3.16 µM, first compound 0.1 µM) was 38.2%, the viability, T/C (second compound 3.16 µM, first compound 0.316 µM) was 11.3% and the viability, T/C (second compound 3.16 µM, first compound 1 µM) was 5.45%. The viability, T/C (second compound 3.16 µM, first compound 3.16 µM) was 3.38%, the viability, T/C (second compound 3.16 µM, first compound 10 µM) was 2.94% and the viability, T/C (second compound 10 µM, first compound 0.0316 µM) was 73.8%. For the same molecule, the viability, T/C (second compound 10 µM, first compound 0.1 µM) was 37.9%, the viability, T/C (second compound 10 µM, first compound 0.316 µM) was 12.3% and the viability, T/C (second compound 10 µM, first compound 1 µM) was 5.29%. For the same molecule, the viability, T/C (second compound 10 µM, first compound 3.16 µM) was 2.98%, the viability, T/C (second compound 10 µM, first compound 10 µM) was 3.83% and the viability, T/C (second compound 31.6 µM, first compound 0.0316 µM) was 55.4%. The viability, T/C (second compound 31.6 µM, first compound 0.1 µM) was 23.2%, the viability, T/C (second compound 31.6 µM, first compound 0.316 µM) was 9.1% and the viability, T/C (second compound 31.6 µM, first compound 1 µM) was 4.96%. For the same molecule, the viability, T/C (second compound 31.6 µM, first compound 3.16 µM) was 3.48%, the viability, T/C (second compound 31.6 µM, first compound 10 µM) was 3.25% and the viability, T/C (second compound 100 µM, first compound 0.0316 µM) was 33.5%. It also gave a viability, T/C (second compound 100 µM, first compound 0.1 µM) of 12.6%, a viability, T/C (second compound 100 µM, first compound 0.316 µM) of 6.3% and a viability, T/C (second compound 100 µM, first compound 1 µM) of 3.95%. For the same molecule, the viability, T/C (second compound 100 µM, first compound 3.16 µM) was 3.48% and the viability, T/C (second compound 100 µM, first compound 10 µM) was 2.85%.
